Columns and labels:
Cbl-b [1] = molecular target: T1, Cbl-b (Homo sapiens (Human), UniProt Q13191); assay: Cbl-b displacement assay (Cbl-b inhibition assay), TR-FRET probe displacement, Biological Example 1; format: binding
Outline: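 TR-FRET displacement of a BODIPY FL-labelled inhibitor probe (150 nM, ~EC40) from biotin-Avitag truncated Cbl-b, detected via 2 nM streptavidin-Tb, 1 h, room temperature. Compound in 1% DMSO pre-incubated 1 h with Cbl-b at 0.5 nM (High) or 0.125 nM (Low) in 20 mM HEPES pH 7.5, 150 mM NaCl, 0.5 mM TCEP.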

[2] = tested on: primary human total T-cells; assay: Primary human total T-cell activation: IL-2 secretion, Biological Example 2; format: cell-based; conditions: 48 hours, fold change over baseline; for fold induction at 0.3 µM: inhibitor 0.3 μM; for fold induction at 1 µM: inhibitor 1 μM; for fold induction at 3 µM: inhibitor 3 μM
[3] = tested on: primary human total T-cells; assay: Primary human total T-cell activation: CD25 surface staining, Biological Example 2; format: cell-based; conditions: 48 hours, fold change over baseline; for fold induction at 0.3 µM: inhibitor 0.3 μM; for fold induction at 1 µM: inhibitor 1 μM; for fold induction at 3 µM: inhibitor 3 μM
Cbl-b [4] = molecular target: T1, Cbl-b; assay: Cbl-b displacement assay (Cbl-b inhibition assay), Biological Example 8; format: binding; conditions: 0.125 nM Cbl-b final concentration (Low); Table 8-1; read-out: Cbl-b IC50 (Low)
Outline: (§1)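 Biotinylated Avitag-Cbl-b (residues 36-427) at 0.5 nM ("High") or 0.125 nM ("Low") final was preincubated 1 h at room temperature with compound (1% DMSO) in 20 mM HEPES pH 7.5, 150 mM NaCl, 0.01% Triton X-100, 0.01% BSA, 0.5 mM TCEP. Then 150 nM BODIPY FL inhibitor probe (~EC40) plus 2 nM streptavidin-terbium, 1 h; TR-FRET 520/620 read, IC50 derived.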

[5] = tested on: primary human total T-cells; assay: Primary human total T-cell activation: IL-2 secretion, Biological Example 9; format: cell-based; conditions: 48 hours, fold change over baseline; for fold induction at 0.3 µM: inhibitor 0.3 μM; for fold induction at 0.3 µM / fold induction at 3 µM: Table 9-1; for fold induction at 1 µM: inhibitor 1 μM; for fold induction at 3 µM: inhibitor 3 μM
[6] = tested on: primary human total T-cells; assay: Primary human total T-cell activation: CD25 surface staining, Biological Example 9; format: cell-based; conditions: 48 hours, fold change over baseline; for fold induction at 0.3 µM: inhibitor 0.3 μM; for fold induction at 0.3 µM / fold induction at 3 µM: Table 9-1; for fold induction at 1 µM: inhibitor 1 μM; for fold induction at 3 µM: inhibitor 3 μM
Cbl-b [7] = molecular target: T1, Cbl-b; assay: Cbl-b displacement assay (Cbl-b inhibition assay), Biological Example 12; format: binding; conditions: 0.125 nM Cbl-b final concentration (Low); Table 12-1; read-out: Cbl-b IC50 (Low)
Outline: as §1

[8] = tested on: primary human total T-cells; assay: Primary human total T-cell activation: IL-2 secretion, Biological Example 13; format: cell-based; conditions: 48 hours, fold change over baseline; for fold induction at 0.3 µM: inhibitor 0.3 μM; for fold induction at 0.3 µM / fold induction at 3 µM: Table 13-1; for fold induction at 1 µM: inhibitor 1 μM; for fold induction at 3 µM: inhibitor 3 μM
[9] = tested on: primary human total T-cells; assay: Primary human total T-cell activation: CD25 surface staining, Biological Example 13; format: cell-based; conditions: 48 hours, fold change over baseline; for fold induction at 0.3 µM: inhibitor 0.3 μM; for fold induction at 0.3 µM / fold induction at 3 µM: Table 13-1; for fold induction at 1 µM: inhibitor 1 μM; for fold induction at 3 µM: inhibitor 3 μM
TC-1 cell tumor = assay: Cbl-b inhibitor in combination with HPV16 E7 cancer vaccine in mice bearing syngeneic TC-1 tumor, Biological Example 11; format: in vivo, C57BL/6 mice; conditions: HPV16 E7 vaccine SC + Compound No. 53 180 mg/kg PO BID; TILs on day 10; percent increase relative to vaccine without Cbl-b inhibitor
Experimental: In brief, the combination therapy was tested in C57BL/6 mice bearing a syngeneic TC-1 cell tumor. TC-1 cells were derived from primary murine lung cells, which had been transfected with human papillomavirus strain 16 (HPV16) early proteins 6 and 7 (E6 and E7) and an activated human c-Ha-ras oncogene (Lin et al., Cancer Research, 56: 21-26, 1996). Either 2.5×10^4 (first study) or 5.0×10^4 (second study) TC-1 cells (obtained from Johns Hopkins University) were injected subcutaneously into the mid flank of each mouse. Tumors were allowed to grow to 50-100 mm^3 at which time the animals were randomized and treatment was begun (day 0).
The HPV16 E7 cancer vaccine (Shrimali et al., Cancer Immunol Res, 5: 755-766, 2017) included 100 μg of a synthetic peptide with the amino acid sequence of a CTL epitope of residues 49-57 of E7 ([…] set forth as SEQ ID NO:2), mixed with 20 μg of a synthetic peptide with the amino acid sequence of a Th epitope known as PADRE (aK-Cha-[…]a set for as SEQ ID NO:3, where “a” is D alanine and “Cha” is L-cyclohexylalanine) and 20 μg of a Quil-A® adjuvant marketed by Brenntag Biosector A/S, which contains purified quillaja saponins. The HPV16 E7 vaccine or Dulbecco's phosphate-buffered saline (DPBS) was administered subcutaneously (SC) on days 2 and 9 (=day 16 and day 23 post TC-1 injection). The Cbl-b inhibitor was dissolved in a suitable formulation and administered at a suitable dose level and frequency as informed by prior pharmacokinetic and tolerability studies. In initial studies, the Cbl-b inhibitor (Compound No. 53) in a suitable vehicle, or the vehicle, was administered orally (PO) at a dose of 180 mg/kg twice per day (BID) beginning on day 0 (=day 14 post TC-1 injection). In further studies, a Cbl-b inhibitor formulation was administered orally (PO) or parenterally (e.g., IV, IP, SC, or intratumorally at one to three injection sites per tumor). In addition to the test group of mice who received the combination therapy (the Cbl-b inhibitor formulation plus the HPV16 E7 vaccine), the study included control groups of mice who received: the vehicle formulation plus DPBS, the Cbl-b inhibitor formulation plus DPBS, or the vehicle formulation plus the HPV16 E7 vaccine.
Tumor size was recorded twice a week starting on day 0 (day 14 post TC-1 injection) and continued through duration of dosing until humane endpoints were reached between day 33 and day 42 (=between day 47 and day 56 post TC-1 injection). The level of response was evaluated by comparing tumor growth in the test mice versus the control mice (10 mice per group). In addition, the level of immune activation was assessed by collecting tumors for analysis of tumor infiltrating lymphocytes (TILs) on day 10 (=day 24 post TC-1 injection) in test and control mice (6 mice per group). TILs were processed for flow cytometric analysis using standard methods to determine antigen specificity, expression of cell type-specific markers, and expression of activation markers such as granzyme B, CD25, CD69, PD-1, and LAG3. In further experiments, PBMCs and/or splenocytes were also collected and processed. Augmentation of the anti-tumor immune response by the combination therapy was assessed by comparing the relative percentage of total or E7-specific (tumor antigen-specific) CD8+ T cells, and the relative levels of expression of activation markers on immune cells in mice of the test and study groups.

[10] = 0.125 nM Cbl-b final concentration (Low), read-out: Cbl-b activity IC50 (Low)
[11] = Cbl-b concentration (High or Low) not given, read-out: IC50 values in the Cbl-b inhibition assay of Biological Example 1
[12] = anti-CD3/anti-CD28 co-stimulation
[13] = anti-CD3/anti-CD28 co-stimulation, read-out: IL-2 secretion CD3/CD28 1 μM
[14] = anti-CD3 alone, read-out: IL-2 secretion CD3 1 μM
[15] = anti-CD3/anti-CD28 co-stimulation, read-out: CD25 staining CD3/CD28 1 μM
[16] = anti-CD3 alone, read-out: CD25 staining CD3 1 μM
[17] = anti-CD3/anti-CD28 co-stimulation, Table 9-1, read-out: IL-2 secretion CD3/CD28 1 μM
[18] = anti-CD3 alone, Table 9-1, read-out: IL-2 secretion CD3 1 μM
[19] = anti-CD3/anti-CD28 co-stimulation, Table 9-1, read-out: CD25 staining CD3/CD28 1 μM
[20] = anti-CD3 alone, Table 9-1, read-out: CD25 staining CD3 1 μM
[21] = anti-CD3/anti-CD28 co-stimulation, Table 13-1, read-out: IL-2 secretion CD3/CD28 1 μM
[22] = anti-CD3 alone, Table 13-1, read-out: IL-2 secretion CD3 1 μM
[23] = anti-CD3/anti-CD28 co-stimulation, Table 13-1, read-out: CD25 staining CD3/CD28 1 μM
[24] = anti-CD3 alone, Table 13-1, read-out: CD25 staining CD3 1 μM

T1 sequence (Q13191 36-427): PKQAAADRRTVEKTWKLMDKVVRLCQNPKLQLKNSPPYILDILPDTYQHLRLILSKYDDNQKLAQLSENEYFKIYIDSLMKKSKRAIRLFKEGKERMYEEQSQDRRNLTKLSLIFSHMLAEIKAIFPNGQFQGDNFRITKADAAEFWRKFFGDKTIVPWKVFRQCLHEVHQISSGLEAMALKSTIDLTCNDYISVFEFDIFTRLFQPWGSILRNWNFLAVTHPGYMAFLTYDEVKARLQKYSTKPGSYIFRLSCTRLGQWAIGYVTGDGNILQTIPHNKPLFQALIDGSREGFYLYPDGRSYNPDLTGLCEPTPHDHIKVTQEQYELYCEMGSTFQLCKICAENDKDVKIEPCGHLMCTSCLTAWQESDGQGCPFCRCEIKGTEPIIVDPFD

SMILES	IC50 (Cbl-b [1]; [10])	IC50 (Cbl-b [1]; [11])	IC50 (Cbl-b [4])	fold induction at 0.3 µM [5, 12]	fold induction at 1 µM [5, 17]	fold induction at 1 µM [5, 18]	fold induction at 3 µM ([5]; anti-CD3 alone)	fold induction at 0.3 µM [6, 12]	fold induction at 1 µM [6, 19]	fold induction at 1 µM [6, 20]	fold induction at 3 µM ([6]; anti-CD3 alone)	IC50 (Cbl-b [7])	fold induction at 0.3 µM [8, 12]	fold induction at 1 µM [8, 21]	fold induction at 1 µM [8, 22]	fold induction at 3 µM ([8]; anti-CD3 alone)	fold induction at 0.3 µM [9, 12]	fold induction at 1 µM [9, 23]	fold induction at 1 µM [9, 24]	fold induction at 3 µM ([9]; anti-CD3 alone)	other results
CCOc1cc(C2(Cc3nncn3C)COC2)cc(N2Cc3c(cc(CN4CCC[C@H](C)C4)cc3C(F)(F)F)C2=O)n1 [Compound 39, 2-(6-ethoxy-4-{3-[(4-methyl-1,2,4-triazol-3-yl)methyl]oxetan-3-yl}pyridin-2-yl)-6-{[(3S)-3-methylpiperidin-1-yl]methyl}-4-(trifluoromethyl)-3H-isoindol-1-one]	< 1 nM	< 1 nM	< 1 nM	> 15	> 15	> 0.66	> 0.66	> 1.39	> 1.39	> 1.14	> 1.14	< 1 nM	> 15	> 15	> 0.66	> 0.66	> 1.39	> 1.39	> 1.14	> 1.14	fold induction at 0.3 µM [2, 12]: > 15; fold induction at 1 µM [2, 13]: > 15; fold induction at 1 µM [2, 14]: > 0.66; fold induction at 3 µM ([2]; anti-CD3 alone): > 0.66; fold induction at 0.3 µM [3, 12]: > 1.39; fold induction at 1 µM [3, 15]: > 1.39; fold induction at 1 µM [3, 16]: > 1.14; fold induction at 3 µM ([3]; anti-CD3 alone): > 1.14
CCNc1cc(C2(Cc3nncn3C)COC2)cc(N2Cc3c(cc(CN4CCC[C@H](C)C4)cc3C(F)(F)F)C2=O)n1 [Compound 44, 2-[6-(ethylamino)-4-{3-[(4-methyl-1,2,4-triazol-3-yl)methyl]oxetan-3-yl}pyridin-2-yl]-6-{[(3S)-3-methylpiperidin-1-yl]methyl}-4-(trifluoromethyl)-3H-isoindol-1-one]	< 1 nM	< 1 nM	< 1 nM	< 10	< 10	< 0.33	0.34 to 0.66	1.25 to 1.39	1.25 to 1.39	1.05 to 1.14	1.05 to 1.14	< 1 nM	< 10	< 10	< 0.33	0.34 to 0.66	1.25 to 1.39	1.25 to 1.39	1.05 to 1.14	1.05 to 1.14	fold induction at 0.3 µM [2, 12]: > 15; fold induction at 1 µM [2, 13]: > 15; fold induction at 1 µM [2, 14]: > 0.66; fold induction at 3 µM ([2]; anti-CD3 alone): > 0.66; fold induction at 0.3 µM [3, 12]: > 1.39; fold induction at 1 µM [3, 15]: > 1.39; fold induction at 1 µM [3, 16]: > 1.14; fold induction at 3 µM ([3]; anti-CD3 alone): > 1.14
Cc1cc(C(=O)Nc2cccc(C3(Cc4nncn4C)COC3)c2)nc(C2CC2)n1 [Compound 53]	–	–	> 5 nM	< 10	10 to 15	0.34 to 0.66	0.34 to 0.66	> 1.39	> 1.39	> 1.14	> 1.14	> 5 nM	< 10	11 to 15	0.34 to 0.66	0.34 to 0.66	> 1.39	> 1.39	> 1.14	> 1.14	Mean increase in CD8+ T cells in TILs: % E7 positive T cells (TC-1 cell tumor): 33.7%; Mean increase in CD8+ T cells in TILs: % Granzyme positive (E7+ T cells) (TC-1 cell tumor): 7.86%; Mean increase in CD8+ T cells in TILs: % Granzyme positive (E7− T cells) (TC-1 cell tumor): 4.12%; Mean increase in CD8+ T cells in TILs: % LAG3 positive (E7+ T cells) (TC-1 cell tumor): 13.49%; Mean increase in CD8+ T cells in TILs: % LAG3 positive (E7− cells) (TC-1 cell tumor): 0.96%; Mean increase in CD8+ T cells in TILs: % PD1 positive (E7+ T cells) (TC-1 cell tumor): 14.97%; Mean increase in CD8+ T cells in TILs: % PD1 positive (E7− T cells) (TC-1 cell tumor): 20.23%

From patent US11464802B2, “3-substituted piperidine compounds for Cbl-b inhibition, and use thereof” (Nurix Therapeutics, Inc., priority 2019, dated 2022)
